Data reported in patent US8143275B2, “Use of triazolopyrimidine derivatives as microbicides” (LANXESS Deutschland GmbH, priority 2001, dated 2012).

Key:
Assay in all cases: Inhibitory test with giant colonies of Basidiomycetes
Format in all cases: cell-based
Details in all cases: 6 ppm active compound in agar medium, 26° C., compared to medium without active compound
Coniophora puteana (P2) = tested on: Coniophora puteana (P2)
Description: (§1) Inhibitory test with giant colonies of Basidiomycetes
(§2) Mycelium pieces were punched out of colonies of Gloeophyllum trabeum (P1), Coniophora puteana (P2), Poria placenta (P3), Lentinus tigrinus (P4), Coriolus versicolor (P5) and Sterum sanguinolentum (P6) and incubated at 26° C. on an agar medium. The inhibition of the growth of the fungal threads on the active-compound-containing medium (concentration of active compound: 6 ppm) was compared to the longitudinal growth of medium without added active compound and rated in inhibition percent.

Poria placenta (P3) = tested on: Poria placenta (P3)
Description: as §1, §2

[1] = tested on: Sterum sanguinolentum (P6)
Description: as §1, §2

Lentinus tigrinus (P4) = tested on: Lentinus tigrinus (P4)
Description: as §1, §2

Coriolus versicolor (P5) = tested on: Coriolus versicolor (P5)
Description: as §1, §2

[2] = tested on: Gloeophyllum trabeum (P1)
Description: as §1, §2

| Compound | P2: inhibition of the growth of the fungal threads (Coniophora puteana (P2)) [%] | P3: inhibition of the growth of the fungal threads (Poria placenta (P3)) [%] | P6: inhibition of the growth of the fungal threads [1] [%] | P4: inhibition of the growth of the fungal threads (Lentinus tigrinus (P4)) [%] | P5: inhibition of the growth of the fungal threads (Coriolus versicolor (P5)) [%] | P1: inhibition of the growth of the fungal threads [2] [%] |
| --- | --- | --- | --- | --- | --- | --- |
| CC1CCN(c2c(-c3c(F)cc(F)cc3F)c(Cl)nc3ncnn23)CC1 [No 9] | 100 | 100 | 100 | 100 | 100 | 100 |
| Fc1cccc(F)c1-c1c(Cl)nc2ncnn2c1N1CCCCCC1 [No 8] | 100 | 100 | 100 | 100 | 100 | 100 |
| Fc1cccc(-c2c(Cl)nc3ncnn3c2NC2CCCC2)c1 [No 1] | 100 |  |  |  | 91 | 80 |
| CC1CCN(c2c(-c3c(F)cccc3Cl)c(Cl)nc3ncnn23)CC1 [No 10] | 100 | 100 | 100 | 100 | 100 | 100 |
| CC(C)Nc1c(-c2ccc(Cl)cc2Cl)c(Cl)nc2ncnn12 [No 6] | 100 |  | 100 |  | 95 | 95 |
| C[C@H](Nc1c(-c2c(F)cc(F)cc2F)c(Cl)nc2ncnn12)C(F)(F)F [No 11] | 100 | 100 | 100 | 100 | 100 | 100 |
| Fc1cc(F)c(-c2c(Cl)nc3ncnn3c2NC2CCCC2)c(F)c1 [No 4] |  |  |  |  | 100 |  |
| Clc1ccccc1-c1c(Cl)nc2ncnn2c1NC1CCCC1 [No 2] | 100 |  | 100 | 94 | 100 | 100 |
| Fc1ccccc1-c1c(Cl)nc2ncnn2c1N1CCCCCC1 [No 7] | 100 |  | 100 | 94 | 100 | 100 |
| Clc1nc2ncnn2c(NC2CCCC2)c1-c1ccccc1 [No 5] |  |  |  |  | 100 |  |
| Fc1cccc(F)c1-c1c(Cl)nc2ncnn2c1NC1CCCC1 [No 3] | 100 |  | 100 | 100 | 100 | 100 |
